According to patent publication US20200246465A1, “USE OF TRYPTOPHAN DERIVATIVES FOR PROTEIN FORMULATIONS” (Genentech, Inc., priority 2015, published 2020):
Where “and” joins values, the source holds several entries; their conditions need not be identical. Equal values may be shown once.

Experiment: AAPH oxidation stress of NAT in formulation buffer, RP-HPLC at 240 nm
Type: physicochemical
Conditions: for % NAT degradation ± 1SD: AAPH stress (1.0 mM AAPH, 40° C. 16 hours)
Protocol: AAPH (Calbio Chem, 99.8%) was used to model oxidative degradation by alkyl peroxides. Histidine and non-histidine buffers at pH 5.5 containing 0.3 mM NAT ±5 mM L-Met pH 5.5 were treated with an aqueous AAPH solution to a final concentration of 1.0 mM AAPH. An equivalent volume of Milli-Q H2O was added to control samples. Samples were incubated at 40° C. for 16 hours. Oxidation was quenched by the addition of L-Met to a final concentration of 20 mM. After the addition of the quenching solution, the final NAT concentration was 0.2 mM. NAT and NAT degradants were separated on an Agilent 1200 series HPLC or Waters H Class UPLC using an Agilent ZORBAX SB-C18 3.5 μm, 4.6×75 mm reverse phase column. Column temperature was held at 30±0.8° C. by a thermostat controller. The gradients used for HPLC and UPLC are listed in Tables 5 and 6, respectively (note: the shorter gradient on the UPLC was designed to accommodate earlier retention times and the column re-equilibration period was elongated due to the larger range of system pressure at a flow rate of 1.0 ml/min). NAT degradation products were detected at 240 nm. The standard bandwidth setting (8 nm for Agilent 1200 HPLC, 4.8 nm for Waters H-Class) was used for analysis on each instrument. The autosampler was maintained at 5±3° C. 10 nmol of NAT and/or NAT degradants (50 μl for most samples) was injected on to the column for analysis. The chromatograms were processed using Dionex Chromeleon software. Protein-containing samples were diluted in guanidine and the proteins removed via ultra-filtration (Amicon spin filters with a 30 kDa molecular weight cut-off). […] Using the final sample preparation conditions, recovery of NAT was 94-99% for three tested antibody/antibody derivatives and recovery of NAT degradants was 98-100% (data not shown). […] Total NAT degradation for each sample was calculated by comparing NAT peak area to the control sample for each stress model (Table 7). NAT degradation ranged from 3% (thermal stress, non-His buffer) to 83% (ICH light stress, His buffer). The impact of low concentrations of protein on AAPH-induced NAT degradation was also analyzed. Two antibodies (protein1 and protein2) were diluted to 1.0 mg/ml in buffer and formulated with 0.3 mM NAT (˜45:1 mol NAT:mol protein). Upon AAPH stress, the level of NAT degradation was largely consistent between protein-containing and protein-free solutions (˜40% loss in NAT peak area), as was the distribution of oxidant species (FIG. 11).

improvement to NAT stability by 5 mM Met (total NAT loss) (AAPH model, depending on buffer): 4-8%
% NAT degradation ± 1SD (His + 5 mM Met buffer, 0.3 mM NAT): 34.7 ± 0.1 (n = 3) %
% NAT degradation ± 1SD (His buffer pH 5.5, 0.3 mM NAT): 39.8 ± 0.2 (n = 3) %
% NAT degradation ± 1SD (Non-His + 5 mM Met buffer, 0.3 mM NAT): 32.9 ± 0.5 (n = 3) %
% NAT degradation ± 1SD (Non-His buffer pH 5.5, 0.3 mM NAT): 41.1 ± 0.7 (n = 3) %
NAT degradation (loss) (AAPH stress, under all tested conditions): 30-40% and 33-41%
loss in NAT peak area (AAPH stress, 0.3 mM NAT in histidine-based buffer, protein-free or with 1.0 mg/ml protein1 or protein2): ~40%
SMILES: CC(=O)N[C@@H](Cc1c[nH]c2ccccc12)C(=O)O [NAT, N-acetyl-tryptophan]
